The target of experiment [1] is T1, human Cav1.2 channel (Homo sapiens, UniProt Q13936).
T1 construct: expressed in transfected cells; host or cells: HEK293
The experiment can be described thus: In vitro assay L channel (FLIPR calcium fluorescence). Particulars: HEK293 cells expressing human Cav1.2 with β-2a and α2δ-1; 20 mM KCl-induced fluo-4 fluorescence; determined up to 10 μM; read-out: L channel antagonistic activity (IC50). It is filed as cell-based. The method, then:
The L channel antagonistic activity (IC50 values) of the compounds of formula (I) is determined in accordance with the following experimental method.
Human embryonic kidney (HEK293) cells expressing the human Cav1.2 channel in addition to the auxiliary subunits β-2a and α2δ-1, are grown in culture medium (DMEM containing 10% heat-inactivated fetal calf serum (FCS), 100 U/ml penicillin, 100 μg/ml streptomycin, 100 μg/ml G418, 40 μg/ml zeocin and 100 μg/ml hygromycin). The cells are seeded at 20.000 cells/well into 384-well black clear bottom sterile plates (poly-L-lysine-coated, Becton Dickinson). The seeded plates are incubated overnight at 37° C. in 5% CO2. The KCl solution is prepared as 80 mM stock solution in assay buffer (HBSS containing 0.1% BSA, 20 mM HEPES, 0.375 g/l NaHCO3, adjusted to pH 7.4 with NaOH) for use in the assay at a final concentration of 20 mM. Antagonists are prepared as 10 mM stock solutions in DMSO, then diluted in 384 w plates first in DMSO, then in assay buffer to obtain 3× stocks. On the day of the assay, 25 μl of staining buffer (HBSS containing 20 mM HEPES, 0.375 g/l NaHCO3, and 3 μM of the fluorescent calcium indicator fluo-4 AM (1 mM stock solution in DMSO, containing 10% pluronic) is added to each well of the seeded plate. The 384-well cell-plates are incubated for 60 min at 37° C. in 5% CO2 followed by washing with 2×50 μl per well using assay buffer leaving 50 μl/well of this buffer for equilibration at room temperature (30-60 min). Within the Fluorescent Imaging Plate Reader (FLIPR, Molecular Devices), antagonists are added to the plate in a volume of 25 μl/well, incubated for 3 min and finally 25 μl/well of KCl solution is added for cellular depolarization. Fluorescence is measured for each well at 2 second intervals for 8 minutes, and the area under the curve of each fluorescence peak is compared to the area of the fluorescence peak induced by 20 mM KCl with vehicle in place of antagonist. […]

Experiment [2] concerns human Cav3.1 Cav3.2 or Cav3.3 channel. The experiment can be described thus: In vitro assay T channel (FLIPR calcium fluorescence). Particulars: HEK293 cells expressing human Cav3.1, Cav3.2 or Cav3.3; 10 mM Ca2+-induced fluo-4 fluorescence; determined up to 10 μM; read-out: T channel antagonistic activity IC50. It is filed as cell-based. A digest of the protocol:
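IC50 (nM) is the antagonist concentration halving the area under the fluorescence peak evoked by 10 mM Ca2+, relative to vehicle, with testing up to 10 μM. Fluo-4-loaded HEK293 cells expressing each human Cav3 subtype received compound 3 min before Ca2+ addition (TEA-based buffer, pH 7.2); signal monitored 8 min at 2 s intervals.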

Experiment [3] concerns isolated mouse hearts. Briefly: Effect on isolated hearts according to the Langendorff method (Lgdff). The method, then:
Effect on Isolated Hearts According to the Langendorff Method (Lgdff)
The compounds were tested for their potential to reduce blood pressure and their effect on the contractility of the heart muscle. EC50 values on isolated mouse hearts were determined according to Literature (Doring H J., The isolated perfused heart according to Langendorff technique—function—application, Physiol. Bohemoslov. 1990, 39(6), 481-504; Kligfield P, Horner H, Brachfeld N., A model of graded ischemia in the isolated perfused rat heart, J. Appl. Physiol. 1976 June, 40(6), 1004-8).
51 example compounds have been measured using the procedure described above for the Langendorff experiment. The measured EC50 values were in the range of 4 to 669 nM with an average of 37 nM.

As usually defined, the pIC50 is −log10 of the IC50, conventionally taken in molar units. As usually defined, the pEC50 is the EC50 on a negative log10 scale, so that one unit is a factor of ten. A higher pEC50 goes with a low EC50.

pEC50, pIC50: −log10 of the molar value.

T1 sequence (Q13936 whole entry): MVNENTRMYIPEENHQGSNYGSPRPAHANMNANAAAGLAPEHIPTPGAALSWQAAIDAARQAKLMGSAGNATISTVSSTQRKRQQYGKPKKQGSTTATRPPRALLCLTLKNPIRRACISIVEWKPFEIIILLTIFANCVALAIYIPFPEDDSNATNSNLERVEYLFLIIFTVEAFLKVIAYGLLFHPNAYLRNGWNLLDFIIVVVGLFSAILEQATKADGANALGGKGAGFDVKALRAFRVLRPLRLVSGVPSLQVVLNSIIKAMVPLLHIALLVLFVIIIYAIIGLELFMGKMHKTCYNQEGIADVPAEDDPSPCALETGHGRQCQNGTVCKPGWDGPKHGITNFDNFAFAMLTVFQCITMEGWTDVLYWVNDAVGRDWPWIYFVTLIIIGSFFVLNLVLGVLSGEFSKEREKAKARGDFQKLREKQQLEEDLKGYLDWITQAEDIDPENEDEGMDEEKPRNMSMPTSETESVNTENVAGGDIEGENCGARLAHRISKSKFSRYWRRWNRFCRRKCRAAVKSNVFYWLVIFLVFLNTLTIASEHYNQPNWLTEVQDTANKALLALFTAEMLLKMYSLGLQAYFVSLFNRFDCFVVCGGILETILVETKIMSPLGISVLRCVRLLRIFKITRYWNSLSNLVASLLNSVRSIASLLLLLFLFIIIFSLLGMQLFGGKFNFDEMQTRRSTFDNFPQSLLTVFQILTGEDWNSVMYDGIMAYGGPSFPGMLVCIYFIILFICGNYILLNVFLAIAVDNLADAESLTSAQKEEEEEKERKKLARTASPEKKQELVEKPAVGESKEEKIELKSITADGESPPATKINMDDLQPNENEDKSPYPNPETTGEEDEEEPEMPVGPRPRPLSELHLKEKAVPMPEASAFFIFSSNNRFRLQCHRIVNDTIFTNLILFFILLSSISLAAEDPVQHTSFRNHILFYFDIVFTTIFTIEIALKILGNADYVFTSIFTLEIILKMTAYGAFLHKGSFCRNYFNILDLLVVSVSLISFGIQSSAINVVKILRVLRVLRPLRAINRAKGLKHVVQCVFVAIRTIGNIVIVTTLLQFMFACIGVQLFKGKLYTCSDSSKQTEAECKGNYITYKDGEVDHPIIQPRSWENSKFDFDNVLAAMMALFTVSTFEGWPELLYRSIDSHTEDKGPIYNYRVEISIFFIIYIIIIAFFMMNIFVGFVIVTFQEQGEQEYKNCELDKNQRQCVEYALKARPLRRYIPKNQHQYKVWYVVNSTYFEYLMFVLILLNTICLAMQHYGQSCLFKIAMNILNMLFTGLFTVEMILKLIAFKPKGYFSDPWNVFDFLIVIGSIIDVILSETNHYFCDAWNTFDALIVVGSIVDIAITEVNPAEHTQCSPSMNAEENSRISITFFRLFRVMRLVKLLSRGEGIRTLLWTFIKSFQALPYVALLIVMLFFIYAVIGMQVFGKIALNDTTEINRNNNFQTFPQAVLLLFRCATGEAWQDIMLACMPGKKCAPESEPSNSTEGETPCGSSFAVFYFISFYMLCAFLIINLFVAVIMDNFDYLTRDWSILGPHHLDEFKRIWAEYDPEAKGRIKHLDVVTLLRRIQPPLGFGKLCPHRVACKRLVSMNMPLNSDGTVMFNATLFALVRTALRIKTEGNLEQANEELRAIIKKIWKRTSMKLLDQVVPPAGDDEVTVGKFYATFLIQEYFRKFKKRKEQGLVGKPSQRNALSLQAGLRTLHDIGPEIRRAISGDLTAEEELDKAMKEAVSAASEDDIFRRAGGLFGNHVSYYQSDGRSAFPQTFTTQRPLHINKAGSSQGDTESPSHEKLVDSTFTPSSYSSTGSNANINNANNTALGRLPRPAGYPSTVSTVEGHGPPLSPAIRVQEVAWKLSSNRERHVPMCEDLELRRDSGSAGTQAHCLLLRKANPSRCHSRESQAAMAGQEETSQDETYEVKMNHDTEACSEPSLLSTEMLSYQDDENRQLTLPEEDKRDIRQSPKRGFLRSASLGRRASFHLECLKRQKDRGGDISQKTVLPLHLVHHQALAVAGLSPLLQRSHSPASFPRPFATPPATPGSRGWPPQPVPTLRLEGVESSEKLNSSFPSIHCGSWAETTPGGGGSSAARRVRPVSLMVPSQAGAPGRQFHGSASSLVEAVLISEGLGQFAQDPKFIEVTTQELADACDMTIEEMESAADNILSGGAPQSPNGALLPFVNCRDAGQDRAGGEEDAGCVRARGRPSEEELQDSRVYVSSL

For the molecule `CC(C)C(=O)O[C@@]1(CCN(C)CCCc2nc3ccccc3[nH]2)C[C@H]2CC[C@@H]1C=C2c1ccc2ccccc2c1` (racemic) [Example 10A, rac-Isobutyric acid (1R*,2R*,4R*)-2-(2-{[3-(1H-benzoimidazol-2-yl)-propyl]-methyl-amino}-ethyl)-5-naphthalen-2-yl-bicyclo[2.2.2]oct-5-en-2-yl ester], the pIC50 in experiment [1] and in experiment [2] was < 5.00 each time. Moreover, the pEC50 in experiment [3] is 7.89.
`CN(CCCc1nc2ccccc2[nH]1)CC[C@]1(O)C[C@H]2CC[C@@H]1C=C2c1ncco1` (racemic) [Example 25, rac-(1R*,2R*,4R*)-2-(2-{[3-(1H-Benzoimidazol-2-yl)-propyl]-methyl-amino}-ethyl)-5-oxazol-2-yl-bicyclo[2.2.2]oct-5-en-2-ol]: the pIC50 in experiment [1] and in experiment [2] was < 5.00 each time.
As to `CN(CCCc1nc2ccccc2[nH]1)CC[C@]1(O)C[C@@H]2C=C[C@H]1CC2` (racemic) [Example 75, rac-(1R*,2R*,4R*)-2-(2-{[3-(1H-Benzoimidazol-2-yl)-propyl]-methyl-amino}-ethyl)-bicyclo[2.2.2]oct-5-en-2-ol], the pIC50 in experiment [1] and in experiment [2] was < 5.00 throughout.
For the molecule `COc1cccc(C2=C[C@H]3CC[C@@H]2C[C@]3(CCN(C)CCCc2nc3ccccc3[nH]2)OC(=O)C(C)C)c1` (relative stereo) [Example 2A, rac-Isobutyric acid (1R*,2R*,4R*)-2-(2-{[3-(1H-benzoimidazol-2-yl)-propyl]-methyl-amino}-ethyl)-5-(3-methoxy-phenyl)-bicyclo[2.2.2]oct-5-en-2-yl ester], in experiment [2], the pIC50 is 5.64. In experiment [3], this molecule gave a pEC50 of 7.82.
`CC1=C(c2ccccc2)[C@H]2CC[C@@H]1C[C@]2(CCN(C)CCCc1nc2ccccc2[nH]1)OC(=O)C(C)C` (relative stereo) [Example 17A, rac-Isobutyric acid (1R*,2R*,4R*)-2-(2-{[3-(1H-benzoimidazol-2-yl)-propyl]-methyl-amino}-ethyl)-5-methyl-6-phenyl-bicyclo[2.2.2]oct-5-en-2-yl ester]: in experiment [2], the pIC50 is 5.86. The molecule also had a pEC50 in experiment [3] of 7.92.
Consider `CC(C)C(=O)O[C@@]1(CCN(C)CCCc2nc3ccccc3[nH]2)C[C@H]2CC[C@@H]1C=C2c1cccs1` (relative stereo) [Example 21A, rac-Isobutyric acid (1R*,2R*,4R*)-2-(2-{[3-(1H-benzoimidazol-2-yl)-propyl]-methyl-amino}-ethyl)-5-thiophen-2-yl-bicyclo[2.2.2]oct-5-en-2-yl ester], for which the pIC50 in experiment [2] is 5.62. This molecule also gave a pEC50 in experiment [3] of 8.00.
`COc1cccc2[nH]c(CCCN(C)CC[C@]3(OC(=O)CC(F)(F)F)C[C@H]4CC[C@@H]3C=C4c3ccccc3)nc12` (relative stereo) [Example 26C, rac-3,3,3-Trifluoro-propionic acid (1R*,2R*,4R*)-2-(2-{[3-(4-methoxy-1H-benzoimidazol-2-yl)-propyl]-methyl-amino}-ethyl)-5-phenyl-bicyclo[2.2.2]oct-5-en-2-yl ester]: in experiment [2], the pIC50 is 5.33. Besides, the pEC50 in experiment [3] was 8.40.
Regarding `CC(C)C(=O)O[C@@]1(CCN(C)CCCc2cccnc2)C[C@H]2CC[C@@H]1C=C2c1ccccc1` (relative stereo) [Example 46A, rac-Isobutyric acid (1R*,2R*,4R*)-2-{2-[methyl-(3-pyridin-3-yl-propyl)-amino]-ethyl}-5-phenyl-bicyclo[2.2.2]oct-5-en-2-yl ester], the pIC50 in experiment [2] was 5.59. Besides, in experiment [3], the pEC50 was 8.05.
With `COc1ccc(OC)c2[nH]c(CCCN(C)CC[C@]3(OC(=O)C(C)C)C[C@H]4CC[C@@H]3C=C4c3ccccc3)nc12` (relative stereo) [Example 61A, rac-Isobutyric acid (1R*,2R*,4R*)-2-(2-{[3-(4,7-dimethoxy-1H-benzoimidazol-2-yl)-propyl]-methyl-amino}-ethyl)-5-phenyl-bicyclo[2.2.2]oct-5-en-2-yl ester], in experiment [2], the pIC50 was 6.24. Further, the pEC50 in experiment [3] was 8.30.
Regarding `COc1ccc(OC)c2[nH]c(CCCN(C)CCC3(OC(=O)C(C)C)CC4CCC3C=C4c3ccccc3)nc12` [Example 67A, Isobutyric acid (1R,2R,4R)-2-(2-{[3-(4,7-dimethoxy-1H-benzoimidazol-2-yl)-propyl]-methyl-amino}-ethyl)-5-phenyl-bicyclo[2.2.2]oct-5-en-2-yl ester or Isobutyric acid (1S,2S,4S)-2-(2-{[3-(4,7-dimethoxy-1H-benzoimidazol-2-yl)-propyl]-methyl-amino}-ethyl)-5-phenyl-bicyclo[2.2.2]oct-5-en-2-yl ester], in experiment [2], the pIC50 was 6.11.
For `COc1ccc(OC)c2[nH]c(CCCN(C)CCC3(OC(=O)C(C)C)CC4CCC3C=C4c3ccccc3)nc12` [Example 70A, Isobutyric acid (1R,2R,4R)-2-(2-{[3-(4,7-dimethoxy-1H-benzoimidazol-2-yl)-propyl]-methyl-amino}-ethyl)-5-phenyl-bicyclo[2.2.2]oct-5-en-2-yl ester or isobutyric acid (1S,2S,4S)-2-(2-{[3-(4,7-dimethoxy-1H-benzoimidazol-2-yl)-propyl]-methyl-amino}-ethyl)-5-phenyl-bicyclo[2.2.2]oct-5-en-2-yl ester], the pIC50 in experiment [2] is 6.10.
Consider `CN(CCCc1nc2ccccc2[nH]1)CC[C@@]1(O)C[C@@H]2CC[C@H]1CN2c1ccccc1` [Example 74, (1S,4S,5R)-5-(2-{[3-(1H-Benzoimidazol-2-yl)-propyl]-methyl-amino}-ethyl)-2-phenyl-2-aza-bicyclo[2.2.2]octan-5-ol], for which the pIC50 in experiment [2] was 5.22.
For the molecule `CC(C)C(=O)O[C@]1(CCN(C)CCCc2nc3ccccc3[nH]2)C[C@@H]2CC[C@H]1CN2c1ccccc1` [Example 74A, Isobutyric acid (1S,4S,5R)-5-(2-{[3-(1H-benzoimidazol-2-yl)-propyl]-methyl-amino}-ethyl)-2-phenyl-2-aza-bicyclo[2.2.2]oct-5-yl ester], the pIC50 in experiment [2] was 5.07.
On the same count and under the same terms, next, “rac-(1R*,3R*,4R*)-1,2,3,4,9,10-Hexahydro-3-hydroxy-3-{N-methyl-N-(3-benzimidazol-2-ylpropyl)aminoethyl}-1,4-ethanophenanthrene [Example 18]”: 5.87.
